Patent publication EP3441475A1, “NEUTRAL HEAT-SENSITIVE SERINE PROTEASE DERIVED FROM O. CORVINA” (priority 2017, dated 2019)
Like-named read-outs stand apart in the source and are kept apart here.

Molecular target: T1, NHSSP (Onygena corvina, UniProt A0A0B4VM82)
T1 sequence (A0A0B4VM82 113-391): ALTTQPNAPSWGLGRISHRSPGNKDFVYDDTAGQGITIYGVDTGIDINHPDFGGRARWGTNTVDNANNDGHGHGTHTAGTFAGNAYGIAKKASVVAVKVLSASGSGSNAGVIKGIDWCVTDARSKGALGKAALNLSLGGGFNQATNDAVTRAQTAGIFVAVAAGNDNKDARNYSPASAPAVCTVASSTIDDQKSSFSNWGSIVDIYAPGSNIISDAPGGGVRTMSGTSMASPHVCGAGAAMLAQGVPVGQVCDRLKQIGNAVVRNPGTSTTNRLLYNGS
Assay: biochemical
Type: biochemical
Experimental: The influence of different inhibitors on the enzymatic activity of NHSSP was determined by hydrolysis of azocasein in Britton-Robinson buffer pH 6.5 supplemented with appropriate substances. The reaction was stopped by the addition of TCA to the final concentration of 293 mM, centrifuged as described above, and the absorbance of supernatants was measured at 450 nm.
The enzymatic reaction was carried out at 40°C with a final inhibitor concentration of 1 mM.

[1] = final inhibitor concentration of 1 mM, 40°C, pH 6.5
[2] = remaining NHSSP activity, final inhibitor concentration of 1 mM, 40°C, Britton-Robinson buffer pH 6.5, read-out: Activity (%)

Row | SMILES | inhibition of NHSSP protease activity (in words) [1] | activity at 1000 µM [2] [%] | activity at 1000 µM (pH 6.5) [%] | inhibition of NHSSP protease activity (in words) (pH 6.5) | Activity (%) (remaining NHSSP activity, final inhibitor concentration of 1 mM, 40°C, Britton-Robinson buffer pH 6.5)
1 | OCCS [2-ß ME, ß-mercaptoethanol] | did not significantly inhibit protease activity | 99 | – | – | –
2 | O=C(O)CN(CCN(CC(=O)O)CC(=O)O)CC(=O)O [EDTA, ethylenediamine tetraacetate] | – | – | 100 | did not significantly inhibit protease activity | –
3 | O=S(=O)(F)Cc1ccccc1 [PMSF, phenylmethylsulfonyl fluoride] | identified as an inhibitor of NHSSP | – | – | – | 40
4 | O=C(O)CCP(CCC(=O)O)CCC(=O)O [TCEP] | did not significantly inhibit protease activity | 97 | – | – | –
